Data set [1] has as its system pNL4.3 (subtype B) HIV-1 virus. The experiment in a line: Luciferase-based antiviral assay, pNL4.3 (wild type). Format: cell-based.
Data set [2] has as its system CM9 (subtype C) HIV-1 virus. Briefly: microbe, parasite or virus in culture. Format: cell-based. The settings on record: Human immunodeficiency virus 1, TZM-bl.
Data set [3] concerns PC 178 (subtype D) HIV-1 virus. The experiment in a line: microbe, parasite or virus in culture. Format: cell-based. The settings on record: Human immunodeficiency virus 1, TZM-bl.
Data set [4] deals with YU2 (subtype B) HIV-1 virus. The experiment in a line: microbe, parasite or virus in culture. The settings on record: Human immunodeficiency virus 1, TZM-bl. Format: cell-based.
In data set [5] the test system is MC 2297 (subtype A) HIV-1 virus. The experiment in a line: microbe, parasite or virus in culture. Format: cell-based. The settings on record: Human immunodeficiency virus 1, TZM-bl.
In data set [6] the test system is PC 60 (subtype D) HIV-1 virus. Briefly: microbe, parasite or virus in culture. The format is cell-based. The conditions noted are these: Human immunodeficiency virus 1, TZM-bl.
Data set [7] relates to PC 148 (subtype A) HIV-1 virus. The experiment in a line: microbe, parasite or virus in culture. Format: cell-based. The conditions noted are these: Human immunodeficiency virus 1, TZM-bl.
A short description of data set [8]: MTT cell viability and cytotoxicity assay. Format: cell-based. The conditions noted are these: human, TZM-bl cells. The procedure:
A. alternata crude extract cell cytotoxicity and viability were assessed by MTT (3-[4, 5-dimethylthiazol-2-yl]-2, 5-diphenyltetrazolium bromide) cell viability assay using the CYQUANT MTT cell proliferation kit (Thermo Fisher Scientific, Waltham, MA, USA). A 96-well culture plate was seeded with 15,000 TZM-bl cells/200 µL of DMEM per well and incubated at 37 °C with 5% CO2.). Following this, 10 µL of the drug control azidothymidine (NIH AIDS Research and Reference Reagent Programme) and the A. alternata crude extract were diluted five-fold, and control wells where neither the control drug AZT nor the crude extract was added were followed by incubation at 37 °C with 5% CO2 and 95% humidity for 48 h. Ten microlitres of 12 mM of MTT solution was added to each well and incubated for 4 h at 37 °C with 5% CO2 and 95% humidity. Then, 50 µL of 100% DMSO were added to each well and incubated for 10 min. The absorbance was then measured at a wavelength of 540 nm using the Victor Nivo microplate reader (PerkinElmer, Waltham, MA, USA). The percentage of cell viability was calculated using the formula below:%Cell viability = (Sample absorbance − media control)/(Mean media control absorbance) × 100
The drug control azidothymidine and A. alternata crude extract CC50 (50% cytotoxic concentration) were determined using GraphPad Prism software (v.5) by dose-response curve.

For data set [9], the system named is CM7 (subtype C) HIV-1 virus. The experiment in a line: microbe, parasite or virus in culture. The format is cell-based. The conditions noted are these: Human immunodeficiency virus 1, TZM-bl.
Data set [10] relates to integrase drug-resistant strain S230R. The settings on record: previously reported; cited from earlier work.
In data set [11] the test system is integrase drug-resistant strain T66K. The experiment in a line: microbe, parasite or virus in culture. The format is cell-based, HIV-1. The settings on record: for IC50: Human immunodeficiency virus 1, TZM-bl, read-out: IC50 (T66K); for inhibition at 300 µg/mL: Human immunodeficiency virus 1, read-out: inhibition of HIV replication; for fold change (FC) T66K: drug-resistant strain IC50/wild-type IC50.

The test system is the same in data set [12]. Set-up: method as in PMID 18625269. The settings on record: previously reported; cited from earlier work.
For data set [13], the system named is integrase drug-resistant strain S230R. The experiment in a line: microbe, parasite or virus in culture. The settings on record: for IC50: Human immunodeficiency virus 1, TZM-bl, read-out: IC50 (S230R); for inhibition at 300 µg/mL: Human immunodeficiency virus 1, read-out: inhibition of HIV replication; for fold change (FC) S230R: drug-resistant strain IC50/wild-type IC50. The format is cell-based, HIV-1.

[14] abbreviates: Human immunodeficiency virus 1, read-out: IC50 (WT).

Values after ≈ are worked out from the molar mass of the structure shown. Where two headings read alike, the source gives them in different places. Some results are limits rather than exact numbers.

In general, IC50 refers to the concentration at which inhibition is half-maximal. For orientation: viability means a read-out of living cells in per cent, often relative to untreated cells. A high value points to less harm to the cells. By CC50 is commonly meant the concentration giving 50% cytotoxicity. A low value points to greater toxicity to the cells. For `Cc1cn([C@H]2C[C@H](N=[N+]=[N-])[C@@H](CO)O2)c(=O)[nH]c1=O` [Azidothymidine, azidothymidine], the IC50 in data set [1] (Human immunodeficiency virus 1, TZM-bl) came out at 0.0338 ± 0.004 µg/mL (≈ 0.126 µM); in data set [2], 0.0924 ± 0.007 µg/mL (≈ 0.346 µM); in [3] it was 0.0813 ± 0.003 µg/mL (≈ 0.304 µM); in [4] it was 0.0423 ± 0.004 µg/mL (≈ 0.158 µM); in data set [5], 0.0138 ± 0.001 µg/mL (≈ 0.0518 µM); in [6] it was 0.078 ± 0.005 µg/mL (≈ 0.292 µM). The figures for the IC50 in [7] and in data set [9] were 0.0403 ± 0.002 µg/mL (≈ 0.151 µM) and 0.058 ± 0.009 µg/mL (≈ 0.217 µM), respectively. In data set [8], this molecule yielded a viability at 48 h above 80%. Further, the CC50 at 48 h in data set [8] (48 h, triplicate) is 385 ± 6.29 µg/mL (≈ 1440 µM).

Usually inhibition stands for the percentage by which the read-out fell short of the control. Regarding `C[C@@H]1CCO[C@H]2Cn3cc(C(=O)NCc4ccc(F)cc4F)c(=O)c(O)c3C(=O)N12` [Dolutegravir, dolutegravir], the IC50 in [1] (setting [14]) was determined as 0.175 ± 0.019 µg/mL (≈ 0.418 µM). Moreover, the “FC in susceptibility conferred by S230R mutation” value in data set [10] was 3.85. Also, in data set [11], the IC50 was 0.327 ± 0.031 µg/mL (≈ 0.78 µM), the inhibition at 300 µg/mL is 100% and the “fold change (FC) T66K” value worked out at 1.864. Besides, the “FC conferred by T66K mutation” value in data set [12] is given as 2. In addition, in data set [13], the IC50 was determined as 0.383 ± 0.04 µg/mL (≈ 0.914 µM), the inhibition at 300 µg/mL was determined as 100% and the “fold change (FC) S230R” value was determined as 2.166.

With `Cc1nnc(C(=O)NC(C)(C)c2nc(C(=O)NCc3ccc(F)cc3)c(O)c(=O)n2C)o1` [Raltegravir, raltegravir], the IC50 in data set [1] (setting [14]) is 0.0364 ± 0.001 µg/mL (≈ 0.082 µM). Moreover, the “FC in susceptibility conferred by S230R mutation” value in data set [10] was 1.52. Besides, in [11], the IC50 is 0.479 ± 0.078 µg/mL (≈ 1.08 µM), the inhibition at 300 µg/mL worked out at 100% and the “fold change (FC) T66K” value amounted to 13.15. The “FC conferred by T66K mutation” value in data set [12] is given as 9.6. Moreover, in data set [13], the concentration for half-maximal inhibition (IC50) was 0.0475 ± 0.0016 µg/mL (≈ 0.107 µM), the inhibition at 300 µg/mL was determined as 100% and the “fold change (FC) S230R” value is 1.305.

Source of the values: publication PMC11859181, “Alternaria alternata (Fr) Keissl Crude Extract Inhibits HIV Subtypes and Integrase Drug-Resistant Strains at Different Stages of HIV Replication” (Pharmaceuticals, 2025).
